Target: HCoV-229E 3CL protease (Human coronavirus 229E, UniProt P0C6U2)
Assay: FRET based protease assay, HCoV-229E 3CL
Type: biochemical
Conditions: 229E IC50, 6 nM H229E-CoV Chis-3CLpro, 6 μM peptide 1 substrate, 25° C., 1.5 hrs, pH 7.5

Sequence of HCoV-229E 3CL protease (P0C6U2 2966-3267): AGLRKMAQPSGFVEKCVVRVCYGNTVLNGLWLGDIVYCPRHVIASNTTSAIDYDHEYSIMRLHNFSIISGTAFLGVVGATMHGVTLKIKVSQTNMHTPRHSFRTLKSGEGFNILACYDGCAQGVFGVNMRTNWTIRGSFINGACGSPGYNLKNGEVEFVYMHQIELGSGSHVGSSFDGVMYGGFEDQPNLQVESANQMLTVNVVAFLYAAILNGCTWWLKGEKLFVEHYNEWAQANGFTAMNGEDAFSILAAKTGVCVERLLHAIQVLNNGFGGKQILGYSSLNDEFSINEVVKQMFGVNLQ

Row | SMILES | IC50
1 | CC(C)(C)OC(=O)N[C@H]1CCCC[C@H]2CNC(=O)[C@H]2C[C@@H](C#N)NC(=O)[C@H](CC2CCCC2)NC1=O [Example 137] | < 100 nM
2 | CC(C)(C)OC(=O)N[C@H]1CCCC[C@H]2CCNC(=O)C2C[C@@H](C#N)NC(=O)[C@@H]2[C@H]3CCC[C@H]3CN2C1=O (stereo partly drawn) [Example 98] | < 100 nM
3 | N#C[C@@H]1C[C@@H]2C(=O)NCC[C@@H]2CCCC[C@H](NC(=O)OC2CCCC2)C(=O)N2C[C@@H]3CCC[C@@H]3[C@H]2C(=O)N1 [Example 93] | < 100 nM
4 | CC(C)C[C@@H]1NC(=O)CCCCC[C@@H]2CNC(=O)[C@H]2C[C@@H](C=O)NC1=O [Example 31] | 1000 to 20000 nM
5 | CC(C)C[C@@H]1NC(=O)CCCC[C@H]2CNC(=O)[C@H]2C[C@@H](C=O)NC1=O [Example 2] | 1000 to 20000 nM
6 | CC(C)C[C@@H]1NC(=O)[C@@H](NC(=O)OC(C)(C)C)CCC[C@H]2CNC(=O)[C@H]2C[C@@H](C=O)NC1=O [Example 15] | 100 to 1000 nM
7 | CC1(C)[C@@H]2[C@H]3C(=O)N[C@H](C#N)C[C@@H]4C(=O)NC[C@@H]4/C=C/CC[C@H](NC(=O)C(F)(F)F)C(=O)N3C[C@@H]21 [Example 108] | < 100 nM
8 | CC1(C)[C@@H]2[C@H]3C(=O)N[C@H](C#N)C[C@@H]4C(=O)NC[C@@H]4CCCC[C@H](N)C(=O)N3C[C@@H]21 [Example 161] | < 100 nM
9 | CC1(C)[C@@H]2[C@H]3C(=O)N[C@H](C#N)C[C@@H]4C(=O)NC[C@@H]4CCCC[C@H](NS(=O)(=O)C(F)(F)F)C(=O)N3C[C@@H]21 [Example 158] | < 100 nM
10 | CC(C)(C)C(=O)N[C@H]1CCCC[C@H]2CNC(=O)[C@H]2C[C@@H](C#N)NC(=O)[C@@H]2CCCN2C1=O [Example 74] | 1000 to 20000 nM
11 | CC1(C)[C@@H]2[C@H]3C(=O)N[C@H](C#N)C[C@@H]4C(=O)NC[C@@H]4CCCC[C@H](NC(=O)C4CCCCC4)C(=O)N3C[C@@H]21 [Example 77] | < 100 nM
12 | CC1(C)[C@@H]2[C@H]3C(=O)N[C@H](C#N)C[C@@H]4C(=O)NC[C@@H]4CCCC[C@H](NC(=O)C4CC5(CCC5)C4)C(=O)N3C[C@@H]21 (stereo partly drawn) [Example 81] | < 100 nM
13 | CC(C)C[C@@H]1NC(=O)[C@@H](OC(C)(C)C)CCC[C@H]2CNC(=O)[C@@H]2C[C@@H](C=O)NC1=O [Example 20] | 1000 to 20000 nM
14 | CC(C)C[C@@H]1NC(=O)[C@H](Cc2ccccc2)CCC[C@@H]2CNC(=O)[C@@H]2C[C@@H](C=O)NC1=O [Example 11] | 100 to 1000 nM
15 | CC(C)(C)OC(=O)N[C@@H]1CCCC[C@H]2CNC(=O)[C@H]2C[C@@H](C#N)NC(=O)[C@@H]2[C@@H]3[C@H](CN2C1=O)C3(C)C [Example 128] | > 20000 nM
16 | CC(C)C[C@@H]1NC(=O)[C@@H](Cc2ccccc2)CCCCC[C@H]2CNC(=O)[C@H]2C[C@@H](C#N)NC1=O [Example 50] | 1000 to 20000 nM
17 | CC(C)C[C@@H]1NC(=O)[C@@H](Cc2ccccc2)CCCC[C@H]2CNC(=O)[C@H]2C[C@@H](C=O)NC1=O [Example 36] | < 100 nM
18 | CC1(C)[C@@H]2[C@H]3C(=O)N[C@H](C#N)C[C@@H]4C(=O)NCC[C@@H]4CCCC[C@H](NC(=O)C(F)(F)F)C(=O)N3C[C@@H]21 [Example 104] | < 100 nM
19 | CC(C)(C)C[C@@H]1NC(=O)[C@@H](NC(=O)c2ccc(F)c(C(F)(F)F)c2)CCCC[C@H]2CNC(=O)[C@H]2C[C@@H](C#N)NC1=O [Example 142] | 100 to 1000 nM

Row | SMILES | IC50
20 | CC(C)C[C@@H]1NC(=O)[C@@H](C2CCCC2)CCC[C@H]2CNC(=O)[C@H]2C[C@@H](C=O)NC1=O [Example 13] | 100 to 1000 nM
21 | CC(C)C[C@@H]1NC(=O)[C@@H](NC(=O)C(C)(C)C)CCCC[C@H]2CNC(=O)[C@@H]2C[C@@H](C#N)NC1=O [Example 54] | 1000 to 20000 nM
22 | CC(C)(C)C(=O)N[C@H]1CCCC[C@H]2CNC(=O)[C@H]2C[C@@H](C#N)NC(=O)[C@@H]2[C@@H]3[C@H](CN2C1=O)C3(C)C [Example 55] | < 100 nM
23 | CC(C)(C)OC(=O)N[C@H]1CCC[C@H]2CNC(=O)[C@H]2C[C@@H](C#N)NC(=O)[C@@H]2[C@@H]3[C@H](CN2C(=O)C1)C3(C)C [Example 125] | 100 to 1000 nM
24 | CC(C)C[C@@H]1NC(=O)[C@@H](NC(=O)OC(C)(C)C)CCC[C@H]2CNC(=O)[C@@H]2C[C@@H](C=O)NC1=O [Example 19] | < 100 nM
25 | CC1(C)[C@@H]2[C@H]3C(=O)N[C@H](C#N)C[C@@H]4C(=O)NC[C@@H]4CCCC[C@H](NC(=O)CC4CCCC4)C(=O)N3C[C@@H]21 [Example 90] | < 100 nM
26 | CC(C)C[C@@H]1NC(=O)CCCCCC[C@@H]2CNC(=O)[C@H]2C[C@@H](C=O)NC1=O [Example 47] | 100 to 1000 nM
27 | CC(C)(C)C(=O)N[C@H]1CC/C=C/[C@H]2CNC(=O)[C@H]2C[C@@H](C#N)NC(=O)[C@@H]2[C@@H]3[C@H](CN2C1=O)C3(C)C [Example 61] | < 100 nM
28 | CC(C)(C)OC(=O)N[C@H]1CCCC[C@H]2CNC(=O)[C@H]2C[C@@H](C#N)NC(=O)[C@@H]2CC(F)(F)CN2C1=O [Example 131] | 1000 to 20000 nM
29 | CC1(C)[C@@H]2[C@H]3C(=O)N[C@H](C#N)C[C@@H]4C(=O)NC[C@@H]4CCCC[C@H](NC(=O)c4cc(Cl)ccc4Cl)C(=O)N3C[C@@H]21 [Example 133] | < 100 nM
30 | Cc1nc(C(=O)N[C@H]2CCCC[C@H]3CNC(=O)[C@H]3C[C@@H](C#N)NC(=O)[C@@H]3[C@@H]4[C@H](CN3C2=O)C4(C)C)co1 [Example 115] | < 100 nM
31 | CC(C)C[C@H]1C(=O)N[C@H](C#N)C[C@@H]2C(=O)NC[C@@H]2CCCC[C@H](NC(=O)C(C)(C)C)C(=O)N1C [Example 57] | 100 to 1000 nM
32 | Cc1cc(C(=O)N[C@H]2CCCC[C@H]3CNC(=O)[C@H]3C[C@@H](C#N)NC(=O)[C@@H]3[C@@H]4[C@H](CN3C2=O)C4(C)C)on1 [Example 109] | < 100 nM
33 | CC(C)C[C@@H]1NC(=O)[C@@H](C2CCCC2)CCC[C@H]2CNC(=O)[C@@H]2C[C@@H](C#N)NC1=O [Example 28] | 1000 to 20000 nM
34 | N#C[C@@H]1C[C@@H]2C(=O)NC[C@@H]2CCCC[C@H](NC(=O)C2(C(F)(F)F)CC2)C(=O)N2C[C@@H]3CCC[C@@H]3[C@H]2C(=O)N1 [Example 150] | < 100 nM
35 | CC(C)(C)OC(=O)N[C@H]1CC/C=C\[C@H]2CCNC(=O)[C@H]2C[C@@H](C#N)NC(=O)[C@@H]2[C@@H]3[C@H](CN2C1=O)C3(C)C [Example 114] | < 100 nM
36 | CC(C)C[C@@H]1NC(=O)[C@@H](NC(=O)C(C)(C)C)CC/C=C\[C@H]2CNC(=O)[C@H]2C[C@@H](C#N)NC1=O [Example 59] | 100 to 1000 nM
37 | CC(C)C[C@@H]1NC(=O)[C@H](Cc2ccccc2)CCC[C@H]2CNC(=O)[C@@H]2C[C@@H](C=O)NC1=O [Example 21] | < 100 nM
38 | CC(C)(C)C(=O)N[C@H]1CCC[C@H]2CCNC(=O)[C@@H]2C[C@@H](C#N)NC(=O)[C@@H]2[C@@H]3[C@H](CN2C1=O)C3(C)C [Example 66] | 100 to 1000 nM

Row | SMILES | IC50
39 | CC(C)(C)C(=O)N[C@H]1CC/C=C/[C@H]2CNC(=O)[C@H]2C[C@@H](C#N)NC(=O)[C@@H]2[C@H]3CCC[C@H]3CN2C1=O [Example 86] | < 100 nM
40 | CC1(C)[C@@H]2[C@H]3C(=O)N[C@H](C#N)C[C@@H]4C(=O)NC[C@@H]4CCCC[C@H](NC(=O)C45CCC(C4)C5)C(=O)N3C[C@@H]21 [Example 148] | < 100 nM
41 | CC(C)(C)C[C@@H]1NC(=O)[C@@H](NC(=O)OC(C)(C)C)CCCC[C@H]2CNC(=O)[C@H]2C[C@@H](C#N)NC1=O [Example 60] | < 100 nM
42 | CC(C)(C)OC(=O)N[C@H]1CCCC[C@H]2CNC(=O)[C@H]2C[C@@H](C#N)NC(=O)[C@@H]2CC3(CC3)CN2C1=O [Example 105] | < 100 nM
43 | CC(C)(F)C[C@@H]1NC(=O)[C@@H](NC(=O)OC(C)(C)C)CCCC[C@H]2CNC(=O)[C@H]2C[C@@H](C#N)NC1=O [Example 138] | 100 to 1000 nM
44 | CC1(C)[C@@H]2[C@H]3C(=O)N[C@H](C#N)C[C@@H]4C(=O)NC[C@@H]4CCCC[C@H](NC(=O)c4ccc(Cl)c(Cl)c4)C(=O)N3C[C@@H]21 [Example 120] | < 100 nM
45 | CC(C)(C)C(=O)N[C@H]1CCCC[C@H]2CCNC(=O)[C@H]2C[C@@H](C#N)NC(=O)[C@@H]2[C@@H]3[C@H](CN2C1=O)C3(C)C [Example 69] | < 100 nM
46 | CC(C)C[C@@H]1NC(=O)[C@@H](Cc2ccccc2)CCC[C@H]2CNC(=O)[C@@H]2C[C@@H](C=O)NC1=O [Example 10] | 1000 to 20000 nM
47 | Cc1cc(C(=O)N[C@H]2CCCC[C@H]3CNC(=O)[C@H]3C[C@@H](C#N)NC(=O)[C@@H]3[C@@H]4[C@H](CN3C2=O)C4(C)C)no1 [Example 122] | < 100 nM
48 | CC(C)(C)OC(=O)N[C@H]1CCCC[C@H]2CNC(=O)[C@H]2C[C@@H](C#N)NC(=O)[C@@H]2[C@H]3CC[C@H](C3)N2C1=O [Example 127] | 1000 to 20000 nM
49 | CC(C)(C)OC(=O)N[C@H]1COCCC[C@H]2CNC(=O)[C@H]2C[C@@H](C#N)NC(=O)[C@@H]2[C@@H]3[C@H](CN2C1=O)C3(C)C [Example 102] | < 100 nM
50 | CC1(C)[C@@H]2[C@H]3C(=O)N[C@H](C#N)C[C@@H]4C(=O)NC[C@@H]4CCCC[C@H](NC(=O)C45CC(C(F)(F)F)(C4)C5)C(=O)N3C[C@@H]21 [Example 119] | < 100 nM
51 | CC(C)C[C@@H]1NC(=O)CCCCCC[C@@H]2CNC(=O)[C@@H]2C[C@@H](C=O)NC1=O [Example 46] | 100 to 1000 nM
52 | CC(C)C[C@@H]1NC(=O)CCCCCC[C@@H]2CNCC(=O)[C@H]2C[C@@H](C=O)NC1=O [Example 51] | 1000 to 20000 nM
53 | CC(C)C[C@@H]1NC(=O)[C@@H](Cc2ccccc2)CCCCC[C@@H]2CNC(=O)[C@@H]2C[C@@H](C#N)NC1=O [Example 49] | > 20000 nM
54 | CC(C)C[C@@H]1NC(=O)CCCCC[C@H]2CNC(=O)[C@@H]2C[C@@H](C=O)NC1=O [Example 32] | < 100 nM
55 | CC1(C)C[C@H]2C(=O)N[C@H](C#N)C[C@@H]3C(=O)NC[C@@H]3CCCC[C@H](NC(=O)OC(C)(C)C)C(=O)N2C1 [Example 130] | < 100 nM
56 | CC(C)(C)OC(=O)N[C@H]1CCCC[C@H]2CNC(=O)[C@H]2C[C@@H](C#N)NC(=O)[C@H]2N(CC(F)(F)C2(C)C)C1=O [Example 146] | 100 to 1000 nM
57 | CCO[C@@H]1C[C@H]2C(=O)N[C@H](C#N)C[C@@H]3C(=O)NC[C@@H]3CCCC[C@H](NC(=O)OC(C)(C)C)C(=O)N2C1 [Example 144] | 100 to 1000 nM

Reference: patent US20260325540A1 (priority 2023, published 2026)
